Consider 31 compounds from patent US6489351B1, “Condensed 4,5,6,7-tetrahydrobenzo[C]thiophenes as enhancer for cell differentation induction factor action” (Takeda Chemical Industries, Ltd., priority 1996, dated 2002).

Series [1] concerns Mouse-derived osteoblast strain MC3T3-E1. Briefly: Alkaline phosphatase production induction capability in mouse osteoblast strain. In kind it is cell-based. The settings on record: compound 10^−5 M, 72 hours, mean±S.E.; for Alkaline Phosphate Activity (A405 × 1,000), BMP Added (3 ng/ml): 3 ng/ml BMP-4/7 heterodimer, control 397 ± 30 (Experiment 4), 420 ± 1 (Experiment 5); for Alkaline Phosphate Activity (A405 × 1,000), BMP Not Added: no BMP, control 135 ± 2 (Experiment 4), 141 ± 8 (Experiment 5). As to the method:
Mouse-derived osteoblast strain MC3T3-E1 in α-MEM containing 10% fetal calf serum (FCS) was seeded to 96-well plates (8,000 cells/well); two days later, the sample, previously diluted with a medium containing or not containing 3 ng/ml BMP-4/7 of heterodimer (described in EP-A-0626451) to each concentration shown in Table 2, was added to the cells reaching a confluent state, followed by cultivation for 72 hours. After each plate was once washed with saline, substrate solution was added, followed by incubation at room temperature for 15 minutes. The reaction was stopped by 0.05 N sodium hydroxide, and the absorbance at 405 nm was determined. The values obtained are given in mean±S.E. in Table 2. The data were statistically analyzed by Student's t-test.

The subject of series [2] is stromal cells prepared from the femoral marrow of a normal rat. Briefly: Osteogenesis-promoting action: alkaline phosphatase activity in rat femoral marrow stromal cells. In kind it is cell-based. The following applies: mean±SE. As to the method: Using stromal cells prepared from the femoral marrow of a normal rat, alkaline phosphatase activity was determined as an index of osteogenesis. Specifically, stromal cells, prepared from the femoral marrow of a 7-week-old male Sprague-Dawley rat by the method of Maniatopoulos et al. [Cell Tissue Research, Vol. 254, p. 317 (1988)], were cultured in an α-MEM (minimum essential medium) solution containing both dexamethasone (10^−7 M) and β-glycerophosphoric acid (10^−2 M) to obtain calcified osteoid tissue. […] After washing with phosphate buffer, the cells were homogenized with 0.2% Nonidet P-40 and centrifuged at 3,000 rpm for 10 minutes. The resulting supernatant was assayed for alkaline phosphatase activity by the method of Lowry et al. [Journal of Biological Chemistry, Vol. 207, p. 19 (1954)]. The values obtained are given in mean±SE in Table 1. The data-were statistically analyzed by Student's t-test.

The mark [3] stands for this setting: compound 10^−5 M, control 694.9 ± 22.7 (Experiment 1), 608.4 ± 20.9 (Experiment 2).
The mark [4] stands for this setting: compound 10^−6 M, Experiment 3, control 63.1 ± 5.0.

As for `CCCSc1sc(C(=O)OCC)c2c1-c1nc(-c3ccccc3)sc1CC2` [Example 3, ethyl 4,5-dihydro-2-phenyl-8-propylthiothieno[3,4-e]benzothiazole-6-carboxylate], the melting point – broadly, the temperature, or range, at which the solid turns liquid – lay within 125 to 126 °C.

With `CCNC(=O)c1sc(SC)c2c1CCc1nc(C)oc1-2` [Example 55], the melting point is 175 to 176 °C.

Take `CSc1sc(C(N)=O)c2c1-c1nc(C)sc1CC2` [Example 36, 4,5-dihydro-2-methyl-8-methylthiothieno[3,4-e]benzothiazole-6-carboxamide]: the melting point fell in the range of 269 to 270 °C. Besides, in series [1], the “Alkaline Phosphate Activity (A405 × 1,000), BMP Added (3 ng/ml)” value is 618 ± 13 A405 × 1,000 and the “Alkaline Phosphate Activity (A405 × 1,000), BMP Not Added” value is 181 ± 6 A405 × 1,000.

On to `CSc1sc(C(N)=O)c2c1-c1oc(C)nc1CC2` [Example 46], for which the “Alkaline Phosphatase Activity (nmol p-nitrophenol/min/well)” value in series [2] (setting [3]) is given as 1,916.8 ± 26.3 nmol p-nitrophenol/min/well.

Compound `CCOC(=O)c1sc(SC)c2c1CCc1nc(C)oc1-2` [Example 17, ethyl 4,5-dihydro-2-methyl-8-methylthiothieno[3,4-g]benzoxazole-6-carboxylate] displayed a melting point of 131 to 132 °C.

As for `CSc1sc(C(=O)O)c2c1-c1nc(C)sc1CC2` [Example 22, 4,5-dihydro-2-methyl-8-methylthiothieno[3,4-e]benzothiazole-6-carboxylic acid], the melting point fell in the range of 273 to 274 °C.

`CCOC(=O)c1sc(SC(C)C)c2c1CCC(NC(C)=O)C2=O` (stereo not shown) [Example 12, ethyl 5-acetylamino-4,5,6,7-tetrahydro-3-isopropylthio-4-oxobenzo[c]thiophene-1-carboxylate] came in with a melting point of 170 to 171 °C.

For `CCOP(=O)(Cc1ccc(NC(=O)c2cc3c(s2)-c2c(SC)sc(C(=O)Nc4ccc(CP(=O)(OCC)OCC)cc4)c2CC3)cc1)OCC`, the melting point was 262 to 263 °C.

As for `CCOC(=O)c1sc(SC)c2c1CCc1sc(C)nc1-2` [Example 1, ethyl 4,5-dihydro-2-methyl-8-methylthiothieno[3,4-e]benzothiazole-6-carboxylate], the melting point was 143 to 144 °C.

`CCOC(=O)c1sc(SC)c2c1CCC(C=O)=C2Cl` [Example 69, ethyl 4-chloro-5-formyl-6,7-dihydro-3-methylthiobenzo[c]thiophene-1-carboxylate] returned a melting point of 79 to 80 °C.

In turn, `CCOC(=O)c1sc(SC)c2c1CCc1nc(-c3ccccc3)[nH]c1-2` [Example 21, ethyl 4,5-dihydro-8-methylthio-2-phenylthieno[3,4-e]benzimidazole-6-carboxylate] showed a melting point of 218 to 219 °C.

Consider `CCCSc1sc(C(=O)O)c2c1-c1nc(-c3ccccc3)sc1CC2` [Example 24, 4,5-dihydro-2-phenyl-8-propylthiothieno[3,4-e]benzothiazole-6-carboxylic acid], for which the melting point was 236 to 237 °C (dec.).

The compound `CCCSc1sc(C(N)=O)c2c1-c1nc(-c3ccccc3)sc1CC2` [Example 37, 4,5-dihydro-2-phenyl-8-propylthiothieno[3,4-e]benzothiazole-6-carboxamide] displayed a melting point of 203 to 204 °C.

In the case of `CSc1sc(C(=O)O)c2c1-c1nc(-c3ccccc3)sc1CC2` [Example 23, 4,5-dihydro-8-methylthio-2-phenylthieno[3,4-e]benzothiazole-6-carboxylic acid], the melting point was 255 to 256 °C (dec.).

Compound `CSc1sc(C(N)=O)c2c1-c1sc(-c3ccccc3)cc1CC2` [Example 76, 4,5-dihydro-8-methylthio-2-phenylbenzo[2,1-c:3,4-b′]dithiophene-6-carboxamide] gave a melting point of 192 to 193 °C.

`CCOC(=O)c1oc(SC)c2c1CCc1sc(-c3ccccc3)nc1-2` [Example 4, ethyl 4,5-dihydro-8-methylthio-2-phenylfuro[3,4-e]benzothiazole-6-carboxylate] gave a melting point of 170 to 171 °C.

Turning to `CCNC(=O)c1sc(SC)c2c1CCc1sc(-c3ccccc3)nc1-2` [Example 50, N-ethyl-4,5-dihydro-8-methylthio-2-phenylthieno[3,4-e]benzothiazole-6-carboxamide], the melting point was 211 to 212 °C. Further, the “Alkaline Phosphatase Activity (nmol p-nitrophenol/min/well)” value in series [2] (setting [3]) was 1,463 ± 33.4 nmol p-nitrophenol/min/well.

On to `CCOC(=O)c1sc(SC)c2c1CCC(NC(C)=O)C2=O` (stereo not shown) [Example 11, ethyl 5-acetylamino-4,5,6,7-tetrahydro-3-methylthio-4-oxobenzo[c]thiophene-1-carboxylate], for which the melting point is 215 to 216 °C.

In turn, `CSc1sc(C(=O)Nc2cccnc2)c2c1-c1nc(-c3ccccc3)sc1CC2` [Example 92, N-(3-pyridyl)-4,5-dihydro-8-methylthio-2-phenylthieno[3,4-e]benzothiazole-6-carboxamide] had a melting point of 230 to 231 °C. For the same compound, in series [2] (setting [4]), the “Alkaline Phosphatase Activity (nmol p-nitrophenol/min/well)” value is on record as 111.4 ± 2.1 nmol p-nitrophenol/min/well.

`CCOC(=O)c1cc2c(s1)-c1c(SC)sc(C(=O)OCC)c1CC2` [Example 71, diethyl 4,5-dihydro-8-methylthiobenzo[2,1-c:3,4-b′]dithiophene-2,6-dicarboxylate] registered a melting point of 107 to 108 °C.

Compound `CSc1sc(C(=O)O)c2c1-c1sc(-c3ccccc3)cc1CC2` [Example 75, 4,5-dihydro-8-methylthio-2-phenylbenzo[2,1-c:3,4-b′]dithiophene-6-carboxylic acid] had a melting point of 215 to 217 °C.

Compound `CCOC(=O)c1sc(SC(C)C)c2c1CCc1nc(C)oc1-2` [Example 18, ethyl 4,5-dihydro-8-isopropylthio-2-methylthieno[3,4-g]benzoxazole-6-carboxylate] registered a melting point of 62 to 63 °C.

For the compound `CON(C)C(=O)c1sc(SC)c2c1CCc1sc(-c3ccccc3)nc1-2` [Example 93, N-methoxy-N-methyl-4,5-dihydro-8-methylthio-2-phenylthieno[3,4-e]benzothiazole-6-carboxamide], the melting point is 157 to 158 °C. The “Alkaline Phosphatase Activity (nmol p-nitrophenol/min/well)” value in series [2] (setting [4]) is listed as 159.9 ± 17.5 nmol p-nitrophenol/min/well.

For `Cc1nc2c(o1)-c1c(SC(C)C)sc(C(N)=O)c1CC2` [Example 47, 4,5-dihydro-8-isopropylthio-2-methylthieno[3,4-g]benzoxazole-6-carboxamide], the melting point lay within 230 to 231 °C. For the same compound, in series [1], the “Alkaline Phosphate Activity (A405 × 1,000), BMP Added (3 ng/ml)” value is reported as 886 ± 35 A405 × 1,000 and the “Alkaline Phosphate Activity (A405 × 1,000), BMP Not Added” value is given as 202 ± 21 A405 × 1,000.

Compound `CCCSc1sc(C(=O)OCC)c2c1C(=O)C(NC(=O)CC)CC2` (stereo not shown) [Example 13, ethyl 4,5,6,7-tetrahydro-4-oxo-5-propionylamino-3-propylthiobenzo[c]thiophene-1-carboxylate] yielded a melting point of 191 to 192 °C.

`CCOC(=O)c1sc(SC)c2c1CCc1sc(-c3ccccc3)nc1-2` [Example 2, ethyl 4,5-dihydro-8-methylthio-2-phenylthieno[3,4-e]benzothiazole-6-carboxylate] returned a melting point of 153 to 154 °C.

As for `CCOC(=O)CSC1=C(C=O)CCc2c(C(=O)OCC)sc(SC)c21` [Example 70, ethyl 4-ethoxycarbonylmethylthio-5-formyl-6,7-dihydro-3-methylthiobenzo[c]thiophene-1-carboxylate], the melting point was in the range of 102 to 103 °C.

Compound `CSc1sc(C(=O)NCc2ccncc2)c2c1-c1nc(-c3ccccc3)sc1CC2` [Example 91, N-(4-pyridylmethyl)-4,5-dihydro-8-methylthio-2-phenylthieno[3,4-e]benzothiazole-6-carboxamide] had a melting point of 189 to 190 °C. Besides, the “Alkaline Phosphatase Activity (nmol p-nitrophenol/min/well)” value in series [2] (setting [4]) is 123.2 ± 5.7 nmol p-nitrophenol/min/well.

The compound `Cc1nc2c(o1)-c1c(SC(C)C)sc(C(=O)O)c1CC2` [Example 33, 4,5-dihydro-8-isopropylthio-2-methylthieno[3,4-g]benzoxazole-6-carboxylic acid] came in with a melting point of 277 to 278 °C.

The compound `CSc1sc(C(=O)NCc2ccc3c(c2)OCO3)c2c1-c1nc(-c3ccccc3)sc1CC2` [Example 90, N-(3,4-methylenedioxybenzyl)-4,5-dihydro-8-methylthio-2-phenylthieno[3,4-e]benzothiazole-6-carboxamide] registered a melting point of 236 to 237 °C. For the same compound, the “Alkaline Phosphatase Activity (nmol p-nitrophenol/min/well)” value in series [2] (setting [4]) is recorded as 102.9 ± 7.3 nmol p-nitrophenol/min/well.

For the compound `CSc1sc(C(N)=O)c2c1-c1[nH]c(-c3ccccc3)nc1CC2` [Example 68, 4,5-dihydro-8-methylthio-2-phenylthieno[3,4-e]benzimidazole-6-carboxamide], the melting point was 206 to 207 °C.
